Results as given in BindingDB's records for doi:10.1021/jm050792d (University of Naples Federico II, 2005).

What was measured:
Adenosine receptor A1 = biological target: T1, Adenosine receptor A1 (Homo sapiens, UniProt P30542); assay: Displacement of [3H]DPCPX from human adenosine A1 receptor expressed in CHO cells
T1 sequence (P30542 whole entry): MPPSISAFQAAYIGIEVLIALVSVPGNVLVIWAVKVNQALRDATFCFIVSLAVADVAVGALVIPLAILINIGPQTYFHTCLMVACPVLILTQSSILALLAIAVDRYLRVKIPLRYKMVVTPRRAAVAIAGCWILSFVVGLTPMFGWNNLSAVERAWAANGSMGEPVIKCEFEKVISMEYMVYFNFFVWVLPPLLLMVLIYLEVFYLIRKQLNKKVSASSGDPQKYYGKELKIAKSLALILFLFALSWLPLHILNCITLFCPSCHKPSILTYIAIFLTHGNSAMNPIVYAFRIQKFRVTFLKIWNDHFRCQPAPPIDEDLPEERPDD

Adenosine receptor A2a = Adenosine receptor A2a (Homo sapiens, UniProt P29274); assay: Displacement of [3H]NECA from human adenosine A2A receptor expressed in CHO cells
Adenosine receptor A2a, sequence (P29274 whole entry): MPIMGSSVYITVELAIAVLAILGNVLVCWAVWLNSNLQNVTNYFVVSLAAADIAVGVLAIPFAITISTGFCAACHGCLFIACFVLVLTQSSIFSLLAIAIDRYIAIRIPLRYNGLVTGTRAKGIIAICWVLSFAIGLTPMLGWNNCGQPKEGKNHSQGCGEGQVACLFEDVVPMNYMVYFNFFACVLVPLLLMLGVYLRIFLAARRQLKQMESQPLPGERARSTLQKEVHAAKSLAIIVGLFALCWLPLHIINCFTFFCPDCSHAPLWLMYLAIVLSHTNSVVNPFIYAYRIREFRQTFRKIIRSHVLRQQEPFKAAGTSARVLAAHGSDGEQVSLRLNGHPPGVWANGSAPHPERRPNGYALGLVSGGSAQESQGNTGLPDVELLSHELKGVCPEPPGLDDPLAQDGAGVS

Compound	Ki (Adenosine receptor A1) [µM]	Ki (Adenosine receptor A2a) [µM]
CC1CSc2nc3nn[nH]c3c(=O)n21 (centres undefined) [7-methyl-6,7-dihydro[1,3]thiazolo[3,2-a][1,2,3]triazolo[4,5-d]pyrimidin-9(3H)-one]	> 10	> 10
O=c1c2[nH]nnc2nc2n1CCCS2 [7,8-Dihydro-3H,6H-5-thia-1,2,3,4,8a-pentaaza-cyclopenta[b]naphthalen-9-one]	> 10	> 10
